Experiments:
MDA-MB-468 cells = assay: In vivo drug efficacy, MDA-MB-468 xenograft model (sacituzumab / Example 9); parameters: species or system mice; details: MDA-MB-468 model, Group 2, dose not given
[1] = system: various cancer cell lines; assay: Cytotoxicity of FL118 in various cancer cell lines; assay type: cell-based; details: 140 cell lines originating from various cancers; against most cancer cells

Molecule | Tumor volume (MDA-MB-468 cells; Day 0) | TGI (MDA-MB-468 cells; Day 21) | Tumor volume (MDA-MB-468 cells; Day 21) | IC50 [1]
sacituzumab: Trop-2 target antibody; control | 200.20 ± 30.90 mm^3 | 43.6% | 433.08±126.82 mm^3 | 
CCC1(O)C(=O)OCc2c1cc1n(c2=O)Cc2cc3cc4c(cc3nc2-1)OCO4 (stereo in doubt) [FL118, (4S)-4-ethyl-4-hydroxy-8,9-methylenedioxy-1H-pyrano[3′,4′:6,7]indolizino[1,2-b]quinoline-3,14(4H,12H)-dione] |  |  |  | < 100 nM
